Assay [1] concerns the target T1, CCK-B (Cavia porcellus, UniProt H0VZC5).
T1 construct: Rat pancreas or guinea pig brain was homogenized; from tissue; host or cells: guinea pig brain homogenate (membrane pellet)
T1 sequence (H0VZC5 1-426): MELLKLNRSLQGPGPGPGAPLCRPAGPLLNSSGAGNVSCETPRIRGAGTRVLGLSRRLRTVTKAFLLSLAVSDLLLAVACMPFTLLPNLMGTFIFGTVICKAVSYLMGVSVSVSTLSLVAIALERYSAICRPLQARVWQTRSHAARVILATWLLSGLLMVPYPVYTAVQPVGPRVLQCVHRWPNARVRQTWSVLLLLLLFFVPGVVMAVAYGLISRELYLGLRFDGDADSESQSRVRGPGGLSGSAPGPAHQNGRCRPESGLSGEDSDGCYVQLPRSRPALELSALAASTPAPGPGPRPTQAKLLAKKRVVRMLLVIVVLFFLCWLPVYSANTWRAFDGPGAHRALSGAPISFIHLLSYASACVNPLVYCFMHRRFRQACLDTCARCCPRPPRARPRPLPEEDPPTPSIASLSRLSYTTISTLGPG
Put plainly: Displacement of 125I-CCK-OP binding to guinea pig brain homogenates (CCK-B binding). Particulars: guinea pig brain membranes; for inhibition at 10 µM: read-out: CCK-B binding GP brain membranes: percent displacement of 125I-CCK-OP; for IC50: 125I-CCK-OP, read-out: CCK-B binding GP brain membranes: IC50. How it is done: Percent displacement of ^125 I-CCK-OP binding to rat pancreatic membrane and guinea pig brain homogenates by compounds of the instant invention at different concentrations was used to quantify CCK-A and CCK-B receptor binding, respectively.
Binding of 125-CCK-OP to rat pancreas (CCK-A) and guinea pig brain (CCK-B) homogenates.
Rat pancreas or guinea pig brain was homogenized in 50 and 20 volumes, respectively, of 50 mM Tris-HCl buffer (pH 7.8 at 25° C.) with a Brinkmann polytron homogenizer. The homogenates were centrifuged twice at 50,000 x g for 20 min with an intermediate rehomogenization in fresh buffer. The final pellets were resuspended in 20 volumes (brain) or 40 volumes (pancreas) of incubation buffer [50 mM Tris-HCl, 5 mM MgCl2, 0.2% BSA, 5 mM dithiothreitol, 0.14 mg/ml bacitracin, pH 7.9 at 25° C.]. One milliliter of the final homogenate from brain or pancreas was diluted to 50 mL with incubation buffer to use in the binding assay.
Binding experiments were performed in a final volume of 1 mL in 13×100 mm borosilicate disposable culture tubes. To duplicate tubes were added 890 μL of freshly resuspended pancreas or brain homogenate; 73,000 dpm of […] (final concentration, 12 pM) and 10 μL of DMSO containing displacing agents (compounds or reference compounds, at the desired final concentrations). Nonspecific (nonsaturable) binding was determined in the presence of 1 μM unlabeled CCK-OP. After incubation for 30 min at 37° C. the binding was stopped by rapid filtration under a reduced pressure through glass fiber FPD-105 Whatman GF/B filters on Harvester and washed twice with 5 mL of ice-cold Tris buffer (50 mM Tris-HCl, pH 7.8). The radioactivity on the filters was counted in a gama counter. […] Specific binding was defined as the excess binding over that in blanks containing 1 μM unlabeled CCK-OP.
Determination of IC50 for displacing agents
(In general: Loss of bound radioactivity is the signal in a displacement assay; it reports binding, not function.)

The target in assay [2] is T2, CCK-A (Rattus norvegicus, UniProt P30551).
T2 sequence (P30551 1-444): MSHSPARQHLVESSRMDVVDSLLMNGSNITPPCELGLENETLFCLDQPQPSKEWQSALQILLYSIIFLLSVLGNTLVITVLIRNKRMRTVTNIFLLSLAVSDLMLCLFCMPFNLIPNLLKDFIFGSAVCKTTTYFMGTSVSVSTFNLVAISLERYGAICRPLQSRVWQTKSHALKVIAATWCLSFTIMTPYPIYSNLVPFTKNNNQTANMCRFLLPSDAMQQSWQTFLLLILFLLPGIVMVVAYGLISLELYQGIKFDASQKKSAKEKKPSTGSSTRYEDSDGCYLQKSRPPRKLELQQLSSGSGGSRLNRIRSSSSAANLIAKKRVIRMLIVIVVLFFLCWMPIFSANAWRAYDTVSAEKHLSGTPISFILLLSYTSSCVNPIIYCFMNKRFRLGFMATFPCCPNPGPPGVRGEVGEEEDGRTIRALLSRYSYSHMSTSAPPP
Put plainly: Displacement of 125I-CCK-OP binding to rat pancreatic membranes (CCK-A binding). Particulars: for inhibition at 1 µM: read-out: CCK-A binding rat pancreatic membranes: percent displacement of 125I-CCK-OP; for IC50: 125I-CCK-OP.

Structures can show the parent of a compound that is named as a salt.

For the compound `CC(C)(C)OC(=O)[C@@H]1CN(c2ccccc2)C(=O)[C@@H]1NC(=O)c1ccc2ccccc2c1` (relative stereo) [1,1-Dimethylethyl cis-4-[(2-naphthalenylcarbonyl)amino]-5-oxo-1-phenyl-3-pyrrolidinecarboxylate], in assay [1], the inhibition at 10 µM came out at 35%. In addition, in assay [2], the inhibition at 1 µM came to 32%.
In general, IC50 refers to the concentration that gives 50% inhibition. `CCCCCN1C[C@H](C(=O)O)[C@H](NC(=O)Nc2ccc(Cl)cc2)C1=O` (relative stereo) [47 cis] had an IC50 in assay [2] greater than 1000 nM.
Still for that read-out and setting: then `CCCCCN1C[C@@H](C(=O)O)[C@H](NC(=O)Nc2ccc(Cl)cc2)C1=O` (relative stereo) [47 trans], with greater than 1000 nM.
On to `CCCCCN1C[C@@H](C(=O)O)[C@@H](NC(=O)c2cnc3ccccc3c2)C1=O` (relative stereo) [Example 27, cis-5-oxo-1-pentyl-4-[(3-quinolinylcarbonyl)amino]-3-pyrrolidinecarboxylic acid, monohydrochloride], for which the figures for the IC50 in assay [1] and in assay [2] were greater than 10000 nM and 250 nM, respectively.
For `O=C(N[C@@H]1C(=O)N(c2ccccc2F)C[C@@H]1C(=O)O)c1cnc2ccccc2c1` (relative stereo) [Example 28, cis-1-(2-fluorophenyl)-5-oxo-4-[(3-quinolinylcarbonyl)amino]5-oxo-3-pyrrolidinecarboxylic acid], in assay [1], the IC50 is greater than 10000 nM.
The compound `O=C(N[C@@H]1C(=O)N(c2ccccc2)C[C@H]1C(=O)O)c1cc2ccccc2[nH]1` (relative stereo) [Example 30, trans-4-[(1H-Indol-2-ylcarbonyl)amino]-5-oxo-1-phenyl-3-pyrrolidinecarboxylic acid] displayed a half-maximal inhibitory concentration (IC50) in assay [2] of 320 nM.
As to `CCCCCN1C[C@@H](C(=O)O)[C@@H](NC(=O)c2ccc(Cl)c(Cl)c2)C1=O` (relative stereo) [Example 32, cis-4-[[(3,4-Dichlorophenyl)carbonyl]amino]-5-oxo-1-pentyl-3-pyrrolidinecarboxylic acid], the inhibition at 10 µM in assay [1] worked out at 49%. In assay [2], this compound yielded a half-inhibitory concentration (IC50) of 300 nM.
With `CCCCCN1C[C@@H](C(=O)O)[C@@H](NC(=O)Nc2ccc(Cl)c(Cl)c2)C1=O` (relative stereo) [Example 34, cis-4-[[[(3,4-dichlorophenyl)amino]carbonyl]amino]-5-oxo-1-pentyl-3-pyrrolidinecarboxylic acid], the half-inhibitory concentration (IC50) in assay [1] stood at 6000 nM; in assay [2], 350 nM.
Take `O=C(N[C@@H]1C(=O)N(c2ccccc2)C[C@H]1C(=O)O)c1ccc(Cl)c(Cl)c1` (relative stereo) [Example 35 (trans), trans-4-[[(3,4-dichlorophenyl)carbonyl]amino]-5-oxo-1-phenyl-3-pyrrolidinecarboxylic acid]: the IC50 was greater than 10000 nM in assay [1] and greater than 1000 nM in assay [2].
The corresponding values for `O=C(Nc1ccc(Cl)c(Cl)c1)N[C@H]1C(=O)N(c2ccccc2)C[C@H]1C(=O)O` (relative stereo) [Example 36 (cis), cis-4-[[[(3,4-dichlorophenyl)amino]carbonyl]amino]-5-oxo-1-phenyl-3-pyrrolidinecarboxylic acid] are 10000 nM and 100 nM.
For `O=C(Nc1ccc(Cl)c(Cl)c1)N[C@@H]1C(=O)N(c2ccccc2)C[C@H]1C(=O)O` (relative stereo) [Example 36 (trans)], in assay [1], the inhibition at 10 µM was determined as 45%. The concentration for half-maximal inhibition (IC50) in assay [2] was greater than 1000 nM.
Compound `CCCCCN1C[C@@H](C(=O)O)[C@H](NC(=O)c2ccc3ccccc3c2)C1=O` (relative stereo) [Example 39, trans-4-[(2-Naphthalenylcarbonyl)amino]-5-oxo-1-pentyl-3-pyrrolidinecarboxylic acid] had a 50% inhibitory concentration (IC50) in assay [2] greater than 10000 nM.
As for `CCCCCN1C[C@@H](C(=O)O)[C@@H](NC(=O)Nc2ccc3ccccc3c2)C1=O` (relative stereo) [Example 40, cis-4-[[(2-Naphthalenylamino)carbonyl]amino]-5-oxo-1-pentyl-3-pyrrolidinecarboxylic acid], the IC50 turned out to be 10000 nM in assay [1] and 2800 nM in assay [2].
With `CCCCCN1C[C@@H](C(=O)O)[C@@H](NC(=O)c2ccc(Cl)cc2)C1=O` (relative stereo) [Example 45], the IC50 in assay [1] is greater than 10000 nM; in assay [2] it was greater than 1000 nM.
The corresponding values for `O=C(N[C@H]1C(=O)N(c2ccccc2)C[C@H]1C(=O)O)c1ccc(Cl)cc1` (relative stereo) [Example 46 (cis), cis-4-[[(4-Chlorophenyl)carbonyl]amino]-5-oxo-1-phenyl-3-pyrrolidinecarboxylic acid] are greater than 10000 nM and 1600 nM.
The like results for `O=C(N[C@@H]1C(=O)N(c2ccccc2)C[C@H]1C(=O)O)c1ccc(Cl)cc1` (relative stereo) [Example 46 (trans), trans-4-[[(4-Chlorophenyl)carbonyl]amino]-5-oxo-1-phenyl-3-pyrrolidinecarboxylic acid] were, in that order, greater than 10000 nM and 41000 nM.
The like results for `O=C(Cc1c[nH]c2ccccc12)N[C@@H]1C(=O)N(c2ccccc2)C[C@H]1C(=O)O` (relative stereo) [Example 51, trans-4-[(3-indolylacetyl)amino]-5-oxo-1-phenyl-3-pyrrolidinecarboxylic acid] were, in that order, greater than 10000 nM and greater than 1000 nM.
Regarding `O=C(N[C@@H]1C(=O)N(c2ccccc2)C[C@@H]1C(=O)N1CCCC1)c1ccc2ccccc2c1` (relative stereo) [Example 53, cis-1-[[3-[(2-Naphthalenylcarbonyl)amino]-2-oxo-1-phenyl-4-pyrrolidinyl]carbonyl]pyrrolidine], the inhibition at 10 µM in assay [1] turned out to be 45%. Moreover, the 50% inhibitory concentration (IC50) in assay [2] stood at 750 nM.
Take `O=C(N[C@@H]1C(=O)N(c2ccccc2)C[C@H]1C(=O)N1CCCC1)c1ccc2ccccc2c1` (relative stereo) [Example 55, trans-1-[[3-[(2-Naphthalenylcarbonyl)amino]-2-oxo-1-phenyl-4-pyrrolidinyl]carbonyl]pyrrolidine]: the IC50 in assay [1] was 10000 nM. Besides, in assay [2], the inhibition at 1 µM is 27%.
